What was measured:
[1] = system: Leptosphaeria nodorum (LEPTNO); test: Glume Blotch of Wheat, whole plant 24 Hour Protectant (T2); details: Parastagonospora nodorum; wheat (cultivar Yuma), sprayed at 100 ppm, inoculated after 24 hours; read-out: T2 LEPTNO in vivo 1 Day Protectant, control of fungal infection
[2] = system: Phytophthora infestans (PHYTIN); test: whole plant or invertebrate; details: in Solanum lycopersicum, 24 h, read-out: T3 PHYTIN in vivo 1 Day Protectant, control of fungal infection
[3] = system: Puccinia recondita (PUCCRT); test: Brown Rust of Wheat, whole plant 24 Hour Protectant (T5); details: wheat (cultivar Yuma), sprayed at 100 ppm, inoculated after 24 hours, read-out: T5 PUCCRT in vivo 1 Day Protectant, control of fungal infection
[4] = system: Septoria tritici (SEPTTR); test: Leaf Blotch of Wheat, whole plant 24 Hour Protectant (T6); details: Zymoseptoria tritici; wheat (cultivar Monon), sprayed at 100 ppm, inoculated after 24 hours; read-out: T6 SEPTTR in vivo 1 Day Protectant, control of fungal infection
[5] = system: Stagonospora nodorum (Leptosphaeria nodorum, LEPTNO); test: microbe, parasite or virus in culture; format: cell-based; details: Parastagonospora nodorum, read-out: T7 LEPTNO in vitro Growth Inhibition
[6] = system: Phytophthora infestans (PHYTIN); test: microbe, parasite or virus in culture; format: cell-based; details: in Secale cereale, read-out: T8 PHYTIN in vitro Growth Inhibition
[7] = system: Magnaporthe grisea (Pyricularia oryzae, PYRIOR); test: microbe, parasite or virus in culture; format: cell-based; details: read-out: T9 PYRIOR in vitro Growth Inhibition
[8] = system: Rhizoctonia solani (RHIZSO); test: microbe, parasite or virus in culture; format: cell-based; details: read-out: T10 RHIZSO in vitro Growth Inhibition
[9] = system: Mycosphaerella graminicola (Septoria tritici, SEPTTR); test: microbe, parasite or virus in culture; format: cell-based; details: Zymoseptoria tritici, read-out: T11 SEPTTR in vitro Growth Inhibition
Ustilago maydis (USTIMA) = test: microbe, parasite or virus in culture; format: cell-based; details: Mycosarcoma maydis, read-out: T12 USTIMA in vitro Growth Inhibition
[10] = system: Erysiphe graminis (ERYSGT); test: Powdery Mildew of Wheat, whole plant 24 Hour Protectant (T1); details: Blumeria graminis, in Triticum aestivum, read-out: T1 ERYSGT in vivo 1 Day Protectant, control of fungal infection

Row | Structure (SMILES) | pest or weed control at 100 ppm [1] [%] | pest or weed control at 100 ppm [2] [%] | pest or weed control at 100 ppm [3] [%] | pest or weed control at 100 ppm [4] [%] | inhibition at 25 ppm [5] [%] | inhibition at 25 ppm [6] [%] | inhibition at 25 ppm [7] [%] | inhibition at 25 ppm [8] [%] | inhibition at 25 ppm [9] [%] | inhibition at 25 ppm (Ustilago maydis (USTIMA)) [%] | pest or weed control at 100 ppm [10] [%]
1 | COc1ccnc(C(=O)N[C@H]2COC(=O)[C@H](Cc3ccccc3)[C@@H](OC(=O)C(C)C)[C@H](C)OC2=O)c1OCOC(=O)COCC(C)C [Compound 38] | 75 to 100 | < 25 | 75 to 100 | 75 to 100 | > 80 | < 80 | > 80 | < 80 | > 80 | < 80 | 25 to 74
2 | CCC(C)OCC(=O)OCOc1c(OC)ccnc1C(=O)N[C@H]1COC(=O)[C@H](Cc2ccccc2)[C@@H](OC(=O)C(C)C)[C@H](C)OC1=O (stereo partly shown) [Compound 39] | 75 to 100 | < 25 | 75 to 100 | 75 to 100 | > 80 | < 80 | > 80 | < 80 | > 80 | < 80 | 25 to 74
3 | COCCOCC(=O)OCOc1c(OC)ccnc1C(=O)N[C@H]1COC(=O)[C@H](Cc2ccccc2)[C@@H](OC(=O)C(C)C)[C@H](C)OC1=O [Compound 40] | 75 to 100 | < 25 | 75 to 100 | 75 to 100 | > 80 | < 80 | > 80 | > 80 | > 80 | > 80 | 25 to 74
4 | COc1ccnc(C(=O)N[C@H]2COC(=O)[C@H](Cc3ccccc3)[C@@H](OC(=O)C(C)C)[C@H](C)OC2=O)c1OCOC(=O)COC1CCCC1 [Compound 41] | 75 to 100 | < 25 | 75 to 100 | 75 to 100 | > 80 | < 80 | > 80 | < 80 | > 80 | > 80 | 25 to 74
5 | COc1ccnc(C(=O)N[C@H]2COC(=O)[C@H](Cc3ccccc3)[C@@H](OC(=O)C(C)C)[C@H](C)OC2=O)c1OCOC(=O)COc1ccccc1 [Compound 42] | 75 to 100 | < 25 | 75 to 100 | < 25 | > 80 | < 80 | > 80 | < 80 | > 80 | < 80 | < 25
6 | COc1ccnc(C(=O)N[C@H]2COC(=O)[C@H](Cc3ccccc3)[C@@H](OC(=O)C(C)C)[C@H](C)OC2=O)c1OC1OC(=O)c2ccccc21 (stereo partly shown) [Compound 43] | 75 to 100 | < 25 | 75 to 100 | 75 to 100 | > 80 | < 80 | < 80 | < 80 | > 80 | < 80 | 25 to 74
7 | CCOC(=O)OCOc1c(OC)ccnc1C(=O)N[C@H]1COC(=O)[C@H](Cc2ccccc2)[C@@H](OC(=O)C(C)C)[C@H](C)OC1=O [Compound 45] | 75 to 100 | 25 to 74 | 75 to 100 | 75 to 100 | > 80 | < 80 | > 80 | < 80 | < 80 | < 80 | 25 to 74
8 | CCCOC(=O)OCOc1c(OC)ccnc1C(=O)N[C@H]1COC(=O)[C@H](Cc2ccccc2)[C@@H](OC(=O)C(C)C)[C@H](C)OC1=O [Compound 46] | 75 to 100 | < 25 | 75 to 100 | 75 to 100 | > 80 | < 80 | > 80 | < 80 | < 80 | < 80 | 25 to 74
9 | COCCOC(=O)OCOc1c(OC)ccnc1C(=O)N[C@H]1COC(=O)[C@H](Cc2ccccc2)[C@@H](OC(=O)C(C)C)[C@H](C)OC1=O [Compound 48] | 75 to 100 | < 25 | 75 to 100 | 75 to 100 | > 80 | < 80 | < 80 | < 80 | < 80 | > 80 | 75 to 100
10 | COCCC(=O)OCOc1c(OC)ccnc1C(=O)N[C@H]1COC(=O)[C@H](Cc2ccccc2)[C@@H](OCC(C)C)[C@H](C)OC1=O [Compound 54] | 75 to 100 | < 25 | 75 to 100 | 75 to 100 | > 80 | < 80 | > 80 | < 80 | > 80 | > 80 | 75 to 100
11 | CCCO[C@H]1[C@H](C)OC(=O)[C@@H](NC(=O)c2nccc(OC)c2OCOC(=O)CCOC)COC(=O)[C@@H]1Cc1ccccc1 [Compound 55] | 75 to 100 | < 25 | 75 to 100 | 75 to 100 | > 80 | < 80 | > 80 | < 80 | > 80 | < 80 | 75 to 100
12 | COc1ccnc(C(=O)N[C@H]2COC(=O)[C@H](Cc3ccccc3)[C@@H](OCC(C)C)[C@H](C)OC2=O)c1OCOC(=O)C1CC1 [Compound 56] | 75 to 100 | < 25 | 75 to 100 | 75 to 100 | > 80 | < 80 | > 80 | < 80 | > 80 | < 80 | 75 to 100
13 | COCCOC(=O)OCOc1c(OC)ccnc1C(=O)N[C@H]1COC(=O)[C@H](Cc2ccccc2)[C@@H](OCC(C)C)[C@H](C)OC1=O [Compound 57] | 75 to 100 | < 25 | 75 to 100 | 75 to 100 | > 80 | < 80 | > 80 | < 80 | > 80 | > 80 | 75 to 100
14 | COCC(=O)OCOc1c(OC)ccnc1C(=O)N[C@H]1COC(=O)[C@H](Cc2ccccc2)[C@@H](OCC(C)C)[C@H](C)OC1=O [Compound 58] | 75 to 100 | < 25 | 75 to 100 | 75 to 100 | > 80 | > 80 | > 80 | < 80 | > 80 | > 80 | 75 to 100

— patent US6861390B2, “Derivatives of UK-2A” (priority 2001, dated 2005)
